One data set has as its system human sEH. To be noted: cited from earlier work.
In data set [1] the test system is carrageenan induced inflammatory pain. Also on record: method as in Rose et al., (2010). To be noted: rat, ref Rose et al., (2010), cited from earlier work.
Another data set concerns sEH. The note with it: cited from earlier work.
Data set [2] addresses T1, recombinant human sEH (Homo sapiens, UniProt P34913).
T1 construct: made in house; host or cells: insect High Five cells, recombinant baculovirus
T1 sequence (P34913 1-555): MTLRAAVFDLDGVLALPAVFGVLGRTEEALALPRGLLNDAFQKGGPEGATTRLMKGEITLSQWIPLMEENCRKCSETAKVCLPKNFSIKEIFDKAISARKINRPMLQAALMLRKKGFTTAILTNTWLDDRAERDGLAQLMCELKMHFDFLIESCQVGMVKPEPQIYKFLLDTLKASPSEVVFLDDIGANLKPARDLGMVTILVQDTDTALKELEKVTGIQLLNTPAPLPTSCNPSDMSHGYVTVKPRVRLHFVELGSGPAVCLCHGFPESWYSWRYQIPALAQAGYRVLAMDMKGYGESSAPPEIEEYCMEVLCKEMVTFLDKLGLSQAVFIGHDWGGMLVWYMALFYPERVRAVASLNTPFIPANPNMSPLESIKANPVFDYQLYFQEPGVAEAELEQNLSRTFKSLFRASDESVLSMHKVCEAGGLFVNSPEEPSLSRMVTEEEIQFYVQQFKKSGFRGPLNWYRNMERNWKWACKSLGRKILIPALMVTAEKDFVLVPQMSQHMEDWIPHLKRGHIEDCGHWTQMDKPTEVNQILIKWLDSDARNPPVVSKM
Nature of the data set: sEH inhibition by radioactivity-based assay (t-DPPO assay), human. Format: biochemical. To be noted: for IC50: t-DPPO 50 μM, mean ± SD of three measurements. As for the experimental part:
(§1) Recombinant human and recombinant rat sEH were produced in insect High Five cells using recombinant baculovirus expression vectors, and purified by affinity chromatography as reported previously. Each enzyme appeared as a single band (0.3 μg loading) with an estimated purity of more than 95% by Coomassie Brilliant Blue staining following SDS-PAGE separation (S1 Fig.). The final recombinant sEH preparations had no esterase or glutathione S-transferase activity which interferes with the CMNPC assay as described below.
IC50 values were determined as described previously with slight modifications, using racemic [^3H] trans-diphenylpropene oxide (t-DPPO). Purified recombinant human sEH was diluted in 100 mM sodium phosphate buffer (pH 7.4) containing 0.1 mg/ml BSA, and was incubated in triplicate with inhibitors for 5 min at 30°C prior to the introduction of the radiolabeled substrate (t-DPPO: 50 μM; ∼10,000 cpm/assay). The mixture was incubated at 30°C for 10 min and the reaction was quenched by the addition of 60 μl of methanol. The remaining substrate was extracted by vigorous mixing with 200 μl of isooctane. The radioactivity of the aqueous phase was measured using a liquid scintillation counter (Perkin Elmer Tri-Carb 2810TR, Shelton, CT). Epoxide hydrolase activity was determined as a percentage of the radioactivity corresponding to the diol in the aqueous phase relative to the control.

The test system of data set [3] is carrageenan induced inflammatory pain. In words: Nociceptive assay, carrageenan-induced inflammatory pain model (von Frey mechanical withdrawal threshold). Format: in vivo. To be noted: rat. As for the experimental part:
Male Sprague-Dawley rats weighing 235–280 g were obtained from Charles River Laboratories and maintained in the UC Davis animal housing facility with ad libitum water and food on a 12 h/12 h light-dark cycle. Behavioral nociceptive testing was conducted by assessing mechanical withdrawal threshold using an electronic von Frey anesthesiometer apparatus (IITC, Woodland Hills, CA). […] At least three measurements were taken at 1–2 min inter-stimulus intervals. Data were normalized to percentage values using the formula (mechanical withdrawal threshold (g)) ×100/ (mechanical withdrawal threshold (g) of naïve animals). The analgesic effect of MMU was tested using the intraplantar carrageenan elicited local inflammatory pain model. […] Subsequently, the ability of these treatments to reduce the carrageenan-induced inflammatory pain was monitored over the course of 2.5 h.

The target in data set [4] is T1, recombinant human sEH. Nature of the data set: Enzyme kinetics (Dixon method, t-DPPO substrate), dissociation constant. Format: biochemical. As for the experimental part: Dissociation constants were determined following the method described by Dixon for competitive tight binding inhibitors, using t-DPPO as a substrate. Inhibitor MMU at concentrations between 0 and 1000 nM was incubated in triplicate for 5 min in 100 mM sodium phosphate buffer (pH 7.4) at 30°C with 100 μl of the enzyme (2 nM of recombinant human sEH). Substrate (4.0 ≤ [S] final ≤ 30 μM) was then added. Velocity was measured as described previously. For each substrate concentration, the plots of the velocity as a function of the inhibitor concentration allow the determination of an apparent inhibition constant (Kiapp). The plot of the Kiapp values as a function of the substrate concentration allows the determination of Ki when [S] = 0. Kiapp was measured in at least 3 separate assays. Results are presented as average ± SE.

In data set [5] the target is T1, recombinant human sEH. In words: sEH inhibition by fluorescent assay (CMNPC assay), human. Format: biochemical. To be noted: for IC50: recombinant human sEH 0.96 nM, [S] = 5 μM, mean ± SD of three measurements. How it is done: as §1
(§2) IC50 values were determined as described previously using cyano (2-methoxynaphthalen-6-yl) methyl trans-(3-phenyl-oxyran-2-yl) methyl carbonate (CMNPC) as a fluorescent substrate. Recombinant human or recombinant rat sEH (0.96 nM) was incubated with crude root extract or inhibitors for 5 min in 25 mM bis-Tris/HCl buffer (pH 7.0) containing 0.1 mg/mL of BSA at 30°C prior to substrate introduction ([S] = 5 μM). Activity was measured by determining the appearance of the 6-methoxy-2-naphthaldehyde with an excitation wavelength of 330 nm and an emission wavelength of 465 nm for 10 min.
The inhibitory potency on human sEH was measured using the CMNPC assay as described in the Materials and Methods. Firstly, the inhibition percentage by each fraction (100 times dilution) was measured (Figure S5&S7). Then the inhibitory potency was measured for the fractions showing higher than 50% inhibition and the IC50 was determined. The potency of each of the fractions is presented as a relative potency to the calculated IC50 of the extract based on the concentration of MMU (Relative potency unit=dilution factor at IC50 of each of fraction/dilution factor at calculated IC50 of the extract based on MMU). […] Data in Table S1&S2 show the relative potency of each fraction and the percentage of recovered potency.

The target in another data set is T2, recombinant rat sEH (Rattus norvegicus, UniProt P80299).
T2 construct: made in house; host or cells: insect High Five cells, recombinant baculovirus
T2 sequence (P80299 1-554): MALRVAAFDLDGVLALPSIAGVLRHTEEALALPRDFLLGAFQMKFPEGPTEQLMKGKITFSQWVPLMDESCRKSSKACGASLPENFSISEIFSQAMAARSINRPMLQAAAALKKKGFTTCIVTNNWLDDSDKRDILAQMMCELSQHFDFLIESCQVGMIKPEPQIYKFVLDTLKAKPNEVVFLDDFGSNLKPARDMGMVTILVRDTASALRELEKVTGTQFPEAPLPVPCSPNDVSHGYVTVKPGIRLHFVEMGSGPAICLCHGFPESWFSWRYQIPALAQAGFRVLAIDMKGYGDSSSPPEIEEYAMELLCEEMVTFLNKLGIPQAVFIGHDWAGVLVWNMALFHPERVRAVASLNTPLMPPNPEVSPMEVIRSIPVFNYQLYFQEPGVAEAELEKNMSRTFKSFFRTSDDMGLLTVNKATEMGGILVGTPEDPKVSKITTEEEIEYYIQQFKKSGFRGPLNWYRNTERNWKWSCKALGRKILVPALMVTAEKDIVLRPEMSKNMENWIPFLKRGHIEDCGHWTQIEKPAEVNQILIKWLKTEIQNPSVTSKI
Nature of the data set: sEH inhibition by fluorescent assay (CMNPC assay), rat. Format: biochemical. To be noted: recombinant rat sEH 0.96 nM, [S] = 5 μM, mean ± SD of three measurements. How it is done: as §1, §2

Data set [6] can be described thus: Solubility in sodium phosphate buffer. The note with it: sodium phosphate buffer 0.1 M pH 7.4, 25°C, mean±SD. Format: physicochemical. As for the experimental part: An excess amount of MMU was added to a vial containing sodium phosphate buffer, 0.1 M pH 7.4 (0.25 mL), and the MMU suspension was equilibrated during 1 h of sonication and 48 h of shaking at 25°C, followed by centrifugation. The amount of MMU in the supernatant was analyzed by LC—MS/MS. The result is presented as mean ± SD of triplicate measurement.

≈ marks a conversion by molar mass, not a printed value. Entries after “also recorded” stand apart in the source; their conditions may differ. Read-outs that look alike come from different tables or passages of the source.

Regarding `O=C(Nc1ccc(OC(F)(F)F)cc1)NC1CCN(C(=O)C2CC2)CC1` [TPCU, 1-(1-(Cyclopropanecarbonyl)piperidin-4-yl)-3-(4-(trifluoromethoxy)phenyl) urea], in the data set on human sEH, the 50% inhibitory concentration (IC50) is […]. Also, the “reduction of carrageenan-induced inflammatory pain” value (“reduction” below) in data set [1] (10 ng/paw intraplantar) is given as “significantly reduced carrageenan induced inflammatory pain; also recorded: significantly reduced pain levels”.
As to `CN1CC[C@]23c4c5ccc(O)c4O[C@H]2[C@@H](O)C=C[C@H]3[C@H]1C5` [morphine], the “reduction” value in [1] (10 μg/paw intraplantar) is recorded as “significantly reduced carrageenan induced inflammatory pain; also recorded: significantly reduced pain levels”.
For `CC(=O)O[C@H]1CC[C@]2(C)[C@H]3CC=C4[C@@H]5CC(C)(C)CC[C@]5(C)CC[C@@]4(C)[C@]3(C)CC[C@H]2C1(C)C` [β-amyrin acetate], in the data set with sEH, the IC50 is 570 nM.
`COc1ccc(CNC(=O)NCc2ccc(OC)cc2)cc1` [MMU, 1,3-Bis (4-methoxybenzyl) urea]: the IC50 on recombinant human sEH [2] was found to be 2600 ± 400 nM. Moreover, the “potency relative to honokiol (more potent)” value at recombinant human sEH [2] (t-DPPO assay) was “about 8 fold”. Also, the “reduction” value in [3] (10 μg/paw intraplantar, 4 h after carrageenan, monitored 2.5 h) is reported as “effectively reduced inflammatory pain; also recorded: significantly reduced carrageenan induced inflammatory pain; also recorded: significantly reduced pain levels; also recorded: showed local analgesic effects”. The “duration of efficacy compared to morphine” value in data set [3] (MMU 10 μg/paw vs morphine 10 μg/paw, Tukey p<0.05) was “longer duration of efficacy compared to morphine”. Besides, at recombinant human sEH [4], the Ki stood at 54 nM, the “potency higher than APAU (Ki based)” value is listed as “approximately 2 fold” and the “potency lower than t-AUCB (Ki based)” value is reported as “approximately 40 fold”. Besides, on recombinant human sEH [5], the IC50 worked out at 92 ± 14 nM. For the same compound, the IC50 on recombinant rat sEH was determined as 35 ± 5 nM. Further, the solubility at 48 h in [6] is 10.6 ± 2.1 µM (≈ 3.18 µg/mL).
For `O=C(NCc1ccccc1)NCc1ccccc1` [BBU, 1,3-Dibenzylurea], the IC50 was found to be 48300 ± 7000 nM on recombinant human sEH [2], 1900 ± 300 nM at recombinant human sEH [5] and 100 ± 6 nM at recombinant rat sEH.
With `COc1ccc(CNC(=O)NCc2ccccc2)cc1` [BMU, 1-Benzyl-3-(4-methoxybenzyl) urea], the half-maximal inhibitory concentration (IC50) on recombinant human sEH [2] was 10200 ± 2600 nM; at recombinant human sEH [5], 400 ± 50 nM; at recombinant rat sEH, 44 ± 4.2 nM. For the same compound, the “inhibitory activity lower than that of MMU” value at recombinant human sEH [5] (with both CMNPC and t-DPPO assays) is reported as “about 4 fold”.
`C=CCc1ccc(O)c(-c2ccc(O)c(CC=C)c2)c1` [honokiol, reference compound]: the IC50 at recombinant human sEH [2] is 20300 ± 1700 nM; in the data set with sEH, 3400 nM.

Source of the values: paper PMC4319826, “Potent Natural Soluble Epoxide Hydrolase Inhibitors from Pentadiplandra brazzeana Baillon: Synthesis, Quantification, and Measurement of Biological Activities In Vitro and In Vivo” (PLoS ONE, 2015).
